Measurements reported in patent publication US20080125496A1, “ANTIMICROBIAL FLAVOR AND ORAL CARE COMPOSITION CONTAINING THE SAME” (TAKASAGO INTERNATIONAL CORPORATION, priority 2001, published 2008).
Values after ≈ are worked out from the molar mass of the structure shown. Read-outs that look alike come from different tables or passages of the source.

Assays:
Type in all cases: cell-based
[1] = system: Actinomyces naeslundii JCM 8350; experiment: MIC by agar plate dilution method, Aa-1; conditions: for MIC: Actinomyces naeslundii, read-out: MIC Aa-1 (caries-related bacteria)
Protocol: (§1) The minimum inhibitory activities of the antimicrobial flavors of the invention on anaerobic oral bacteria were measured by an agar plate dilution method.
(§2) All the test strains were obtained from Riken (The Institute of Physical and Chemical Research). The names and abbreviations of the strains are shown in Table 1 below (The abbreviations are used in the following description).
(§3) Each test microorganism kept frozen (−80° C.) in glycerol at a concentration of 25% was thawed. A 100 μl portion of the suspension was inoculated into 10 ml of a liquid medium. A Gifu university anaerobic medium (GAM) (Nissui Pharmaceutical Co., Ltd) having added thereto Hemin (Tokyo Kasei) and Menadione (Sigma) was used for Su-1 and Fn-1. Schaedler Broth (BBL) having added thereto Hemin and Menadione was used for the other strains. The culture was anaerobically incubated at 37° C. for 72 hours by using BBL Gas Pack Anaerobic System. After the cultivation, the microbial cell suspension of Su-1 was 10-fold diluted to prepare an inoculum. The cultures of Fn-1 and Pg-1 were used as such as an inoculum. The cultures of Pt-1, Aa-1, and Av-1 were subjected to centrifugation, and the separated microbial cells were suspended in 2 ml of sterilized physiological saline to prepare the respective inoculums.
(§4) An agar medium prepared by adding 2% agar (Difco), Hemin, and Menadione to Trypticase Soy Broth (BBL) was used. A test sample (antimicrobial flavor) was dissolved in ethanol to prepare 2-fold serial dilutions. To 10 ml of the agar medium was added 100 μl of each dilution and stirred well. The agar medium was transferred to a petri dish (diameter: 9 cm) and solidified at room temperature. The solidified agar medium was inoculated with 5 μl of the inoculum by means of a multipoint inoculator (Microplanter MIT-P27, supplied by Sakuma Seisakusho), followed by culturing at 37° C. for 72 hours under anaerobic conditions. The growth of the test microorganism was compared with a blank petri dish (the agar medium to which 100 μl of ethanol had been added). The lowest sample concentration that inhibited growth was taken as MIC (ppm).
(§5) Antimicrobial activities (MIC; ppm) of the aromahygiene base (AHB) prepared in (1) and the antimicrobial flavor compositions prepared in (2) (Examples 2-1 to 2-3) and Comparative Examples 2-1 to 2-3 were measured in the same manner as in Example 1 (2).

[2] = system: Actinomyces viscosus JCM 8352; experiment: MIC by agar plate dilution method, Av-1; conditions: for MIC: Actinomyces viscosus, read-out: MIC Av-1 (caries-related bacteria)
Protocol: as §1, §2, §3, §4, §5

[3] = system: Prevotella intermedia JCM 6322; experiment: MIC by agar plate dilution method, Pt-1; conditions: for MIC: Prevotella intermedia, read-out: MIC Pt-1 (paradentosis-related bacteria)
Protocol: as §1, §2, §3, §4, §5

[4] = system: Porphyromonas gingivalis JCM 8525; experiment: MIC by agar plate dilution method, Pg-1; conditions: for MIC: Porphyromonas gingivalis, read-out: MIC Pg-1 (paradentosis-related bacteria; head Fg-1 in Tables 2 and 3)
Protocol: as §1, §2, §3, §4, §5

[5] = system: Fusobacterium nucleatum JCM 6328; experiment: MIC by agar plate dilution method, Fn-1; conditions: for MIC: Fusobacterium nucleatum, read-out: MIC Fn-1 (paradentosis-related bacteria)
Protocol: as §1, §2, §3, §4, §5

[6] = system: Streptococcus mutans JCM 5175; experiment: MIC by agar plate dilution method, Su-1; conditions: for MIC: Streptococcus mutans, read-out: MIC Su-1 (caries-related bacteria)
Protocol: as §1, §2, §3, §4, §5

[7] = JCM8350, agar medium, 37° C., 72 hours, anaerobic conditions
[8] = JCM8352, agar medium, 37° C., 72 hours, anaerobic conditions
[9] = JCM6322, agar medium, 37° C., 72 hours, anaerobic conditions
[10] = JCM8525, agar medium, 37° C., 72 hours, anaerobic conditions
[11] = JCM6328, agar medium, 37° C., 72 hours, anaerobic conditions
[12] = JCM5175, agar medium, 37° C., 72 hours, anaerobic conditions
[13] = agar medium, 37° C., 72 hours, anaerobic conditions

Row | SMILES | MIC [1, 7] [µg/mL] | MIC [2, 8] [µg/mL] | MIC [3, 9] [µg/mL] | MIC [4, 10] [µg/mL] | MIC [5, 11] [µg/mL] | MIC [6, 12] [µg/mL] | MIC Aa-1 (caries-related bacteria) [1, 13] [ppm] | MIC Av-1 (caries-related bacteria) [2, 13] [ppm] | MIC Pg-1 (paradentosis-related bacteria; head Fg-1 in Tables 2 and 3) [4, 13] [ppm] | MIC Fn-1 (paradentosis-related bacteria) [5, 13] [ppm] | MIC Su-1 (caries-related bacteria) [6, 13] [ppm] | MIC Pt-1 (paradentosis-related bacteria) [3, 13] [ppm] | other results
1 | CCCCCCCCCO [1-nonanol] | 500 (≈ 3470 µM) | 500 (≈ 3470 µM) | 250 (≈ 1730 µM) | 250 (≈ 1730 µM) | 500 (≈ 3470 µM) | 1000 (≈ 6930 µM) | – | – | – | – | – | – | –
2 | CCCCCCCCC(C)C=O (stereo not shown) [2-Methyl decanal] | 250 (≈ 1470 µM) | 500 (≈ 2940 µM) | 125 (≈ 734 µM) | 62.5 (≈ 367 µM) | 500 (≈ 2940 µM) | 500 (≈ 2940 µM) | – | – | – | – | – | – | –
3 | CCCCCCCCCC(C)C=O (stereo not shown) [2-Methyl undecanal] | 125 (≈ 678 µM) | 125 (≈ 678 µM) | 62.5 (≈ 339 µM) | 62.5 (≈ 339 µM) | 125 (≈ 678 µM) | 250 (≈ 1360 µM) | – | – | – | – | – | – | –
4 | CCCCCCCCC=CCC=O [3-Dodecenal] | 500 (≈ 2740 µM) | 500 (≈ 2740 µM) | 31.3 (≈ 172 µM) | 62.5 (≈ 343 µM) | 250 (≈ 1370 µM) | 1000 (≈ 5490 µM) | – | – | – | – | – | – | –
5 | CC1CCC(C(C)C)C(OCC(O)CO)C1 (stereo not shown) [3-Menthoxypropane-1,2-diol] | 500 (≈ 2170 µM) | 62.5 (≈ 271 µM) | – | 250 (≈ 1090 µM) | 1000 (≈ 4340 µM) | 1000 (≈ 4340 µM) | – | – | – | – | – | – | –
6 | O=C1CCCC=CCCCCCCCCCC1 [5-cyclohexadecen-1-one] | > 1000 | > 1000 | 31.3 (≈ 132 µM) | 15.6 (≈ 66 µM) | > 1000 | > 1000 | – | – | – | – | – | – | –
7 | C=CCCCCCCCCO [9-decen-1-ol] | 250 (≈ 1600 µM) | 250 (≈ 1600 µM) | 62.5 (≈ 400 µM) | 125 (≈ 800 µM) | 250 (≈ 1600 µM) | 1000 (≈ 6400 µM) | – | – | – | – | – | – | –
8 | C=CCCCCCCCCCO [10-undecen-1-ol] | 125 (≈ 734 µM) | 125 (≈ 734 µM) | 31.3 (≈ 184 µM) | 31.3 (≈ 184 µM) | 125 (≈ 734 µM) | 250 (≈ 1470 µM) | – | – | – | – | – | – | –
9 | CC(=O)C1=C(C)[C@@H]2C[C@@]3(C1)[C@H](C)CC[C@H]3C2(C)C [Acetyl cedrene] | – | – | – | – | – | – | 31.3 | 31.3 | 15.6 | 500 | 250 | – | –
10 | CC1(C)CCC[C@]2(C)[C@H]3CCO[C@]3(C)CC[C@@H]12 [Ambroxan] | – | – | – | – | – | – | >1000 | >1000 | 31.3 | >1000 | >1000 | 31.3 | –
11 | CC/C(=C\CC1CC=C(C)C1(C)C)CO (stereo not shown) [Bacdanol] | – | – | – | – | – | – | 125 | 62.5 | 31.3 | 62.5 | 125 | – | –
12 | CC1=CCC(CCC(C)CO)C1(C)C (stereo not shown) [Brahmanol] | – | – | – | – | – | – | 125 | 125 | 31.3 | 250 | 250 | 31.3 | –
13 | CC1C(C)(C)C2=C(C(=O)CCC2)C1(C)C (stereo not shown) [Cashmerane] | – | – | – | – | – | – | 1000 | 1000 | 250 | >1000 | >1000 | 250 | –
14 | C[C@@H]1CC[C@H]2C(C)(C)[C@H]3C[C@@]12CC[C@@]3(C)O [Cedrol] | > 1000 | > 1000 | 31.3 (≈ 141 µM) | 31.3 (≈ 141 µM) | > 1000 | > 1000 | – | – | – | – | – | – | –
15 | CC(=O)O[C@]1(C)CC[C@@]23C[C@@H]1C(C)(C)[C@@H]2CC[C@H]3C [Cedryl acetate] | – | – | – | – | – | – | – | – | – | – | – | – | MIC ([1]; JCM8350, 72 h): > 1000 µg/mL; MIC ([2]; JCM8352, 72 h): > 1000 µg/mL; MIC ([3]; JCM6322, 72 h): 62.5 µg/mL; MIC ([4]; JCM8525, 72 h): 31.3 µg/mL; MIC ([5]; JCM6328, 72 h): > 1000 µg/mL; MIC ([6]; JCM5175, 72 h): > 1000 µg/mL
16 | COC(/C=C/c1ccccc1)OC [Cinnamic aldehyde dimethyl acetal] | – | – | – | – | – | – | 125 | 250 | <15.6 | 500 | 250 | 62.5 | –
17 | O=C1CCCCCCCCCCCCCCO1 [Cyclopentadecanolide] | – | – | – | – | – | – | >1000 | >1000 | <62.5 | >1000 | >1000 | <62.5 | –
18 | O=C1CCCCCCCCCCCCCC1 [Cyclopentadecanone] | – | – | – | – | – | – | – | – | – | – | – | – | MIC ([1]; JCM8350, 72 h): > 1000 µg/mL; MIC ([2]; JCM8352, 72 h): > 1000 µg/mL; MIC ([3]; JCM6322, 72 h): < 62.5 µg/mL; MIC ([4]; JCM8525, 72 h): < 62.5 µg/mL; MIC ([5]; JCM6328, 72 h): > 1000 µg/mL; MIC ([6]; JCM5175, 72 h): > 1000 µg/mL
19 | CCCc1ccc(O)c(OC)c1 [Dihydroeugenol] | – | – | – | – | – | – | 500 | 500 | 62.5 | 500 | 1000 | 62.5 | –
20 | CC(C)=CCC/C(C)=C/CCC(C)CCO (stereo not shown) [Dihydrofarnesol] | – | – | – | – | – | – | 31.3 | 62.5 | 7.8 | 31.3 | 31.3 | 7.8 | –
21 | CCCCCCCCCCCC=O [Dodecanal] | 500 (≈ 2710 µM) | 500 (≈ 2710 µM) | 62.5 (≈ 339 µM) | 62.5 (≈ 339 µM) | 125 (≈ 678 µM) | 500 (≈ 2710 µM) | – | – | – | – | – | – | –
22 | O=C1CCCCCCCCCCC(=O)OCCO1 [Ethylenedodecanedioate] | – | – | – | – | – | – | >1000 | 250 | 31.3 | >1000 | >1000 | >1000 | –
23 | CC(C=O)Cc1ccc2c(c1)OCO2 (stereo not shown) [Helional] | – | – | – | – | – | – | 250 | 500 | 125 | 1000 | 1000 | 1000 | –
24 | CC(C)Cc1ccc2ncccc2c1 [Isobutyl quinoline] | – | – | – | – | – | – | 250 | 250 | 62.5 | 1000 | 1000 | 250 | –
25 | C=C(C)[C@@H]1CCC2=CC(=O)C[C@@H](C)[C@]2(C)C1 [Nootkatone] | 62.5 (≈ 286 µM) | 62.5 (≈ 286 µM) | – | 7.8 (≈ 35.7 µM) | 500 (≈ 2290 µM) | 1000 (≈ 4580 µM) | – | – | – | – | – | – | –
26 | C=C(C)[C@@H]1CC=C(CO)CC1 [Perilla alcohol] | 250 (≈ 1640 µM) | 500 (≈ 3280 µM) | – | 125 (≈ 821 µM) | 500 (≈ 3280 µM) | 500 (≈ 3280 µM) | – | – | – | – | – | – | –
27 | CCCCCCCC/C=C/C=O [Trans-2-undecenal] | 125 (≈ 743 µM) | 125 (≈ 743 µM) | – | – | 1000 (≈ 5940 µM) | 250 (≈ 1490 µM) | – | – | – | – | – | – | –
28 | CCCCCCCCCCC=O [Undecanal] | 500 (≈ 2940 µM) | 500 (≈ 2940 µM) | – | 125 (≈ 734 µM) | 500 (≈ 2940 µM) | 1000 (≈ 5870 µM) | – | – | – | – | – | – | –
